What was measured:
[1] = test system: acute and delayed vomiting induced by cisplatin in ferrets; experiment: Acute and delayed vomiting induced by cisplatin in ferrets, oral dosing once or twice daily; type: in vivo; conditions: cisplatin 5 mg/kg i.p.
Method: Male 4 to 6 ferrets (1.2 to 2.2 kg) per one group were used. Cisplatin was intraperitoneally given at 5 mg/5ml/kg. 30 minutes prior to cisplatin administration and 24 and 48 hours after cisplatin administration, predetermined doses of the compound No. 3 were orally given in case of dosing once daily. 30 minutes prior to cisplatin administration and 12, 24, 36, 48 and 60 hours after cisplatin administration, predetermined doses of the compound No. 3 were orally given in case of dosing twice daily. 30 minutes prior to the dosing of the compound No. 3, a small amount of a feed was given to the animals in any of the cases. Similarly, a predetermined volume of 0.5 % methyl cellulose solution was similarly given orally to a control animal group under no fasting. A predetermined dose of ondansetron was orally given to the animals under fasting. To a control animal group of ondansetron, a predetermined volume of physiological saline was orally given to the animals under fasting. The frequency of vomiting was counted in number, up to 72 hours after cisplatin administration.
The compound No. 3 was suspended in 0.5 % methyl cellulose solution, for oral dosing at predetermined doses at a ratio of 1 ml per 1 kg body weight. An injection of ondansetron at 0.2 w/v % concentration was orally given at a predetermined volume. Additionally, 0.5 % methyl cellulose solution was orally given at a ratio of 1 ml per 1 kg body weight, while physiological saline was orally given at a ratio of 0.5 to 1.5 ml per 1 kg body weight. The data relating to the frequency of vomiting, the time period (latency) until first vomiting and the time period from the occurrence of vomiting to the termination thereof were statistically analyzed by the Dunnett test, with reference to the difference from the control group.
The acute vomiting suppression ratio, delayed vomiting suppression ratio and total vomiting suppression ratio were calculated by the following formula. [Frequency of retching or vomiting in control] - [Frequency of retching or vomiting in animals dosed with compound No. 3] / [Frequency of retching or vomiting in control] x 100 (%) [formula]

[2] = test system: vomiting induced by a central emetic agent apomorphine in dogs; experiment: Vomiting induced by apomorphine in dogs; type: in vivo, beagle dogs; conditions: apomorphine 0.1 mg/kg subcutaneous; for B: Frequency of vomiting (mean ± SD) / C: Time period until first vomiting (minute; mean ± SD) / D: Duration of vomiting (minute; mean ± SD) / Number of dogs with vomiting/number of tested dogs: one hour
Method: 3 male or female beagle dogs (7.8 to 15.9 kg) per one group were used. Apomorphine was subcutaneously given at 0.1 mg/ml/kg. 2.5 hours prior to apomorphine administration, a small amount of a feed was given to the animals. 30 minutes thereafter, predetermined doses of the compound No. 3 were orally given. Similarly, 0.5 % methyl cellulose solution was orally given to a control animal group under no fasting. A predetermined dose of ondansetron was given orally to the animals under fasting. The frequency of vomiting was counted in number, up to one hour after apomorphine administration. The compound No. 3 was dissolved in 0.5 % methyl cellulose solution, for oral dosing at a ratio of 1 ml per 1 kg • body weight. An injection of ondansetron at a concentration of 0.2% w/v was orally given. Additionally, 0.5 % methyl cellulose solution was orally given at a ratio of 1 ml per 1 kg • body weight. The data relating to the frequency of vomiting, the latency and the time period from the occurrence of vomiting to the termination thereof were statistically analyzed by the Dunnett test, with reference to the difference from the control group.
The vomiting suppression ratio was calculated by the following formula.

[3] = 0.03 mg/kg × 2 p.o., twice daily
[4] = 0.1 mg/kg × 2 p.o., twice daily
[5] = 0.3 mg/kg × 2 p.o., twice daily
[6] = 1 mg/kg p.o. twice daily, listed as compound No. 3
[7] = 3 mg/kg p.o. twice daily, listed as compound No. 3
[8] = 10 mg/kg p.o. once daily, listed as compound No. 3

## Cc1ccc(-c2c3n(c(=O)c4ncccc24)CC[C@@H](C)CN(Cc2cc(C(F)(F)F)cc(C(F)(F)F)c2)C3=O)cc1 [Cpd. No.3, (9R)-7-[3,5-bis(trifluoromethyl)benzyl]-6,7,8,9,10,11-hexahydro-9-methyl-5-(4-methylphenyl)-6,13-dioxo-13H-[1,4]diazocino[2,1-g][1,7]naphthylidine]
[1]; 0.03 mg/kg p.o. twice daily
  Acute vomiting suppression ratio (0 to 24 hours after cisplatin dosing): 25 % NS
  Delayed vomiting suppression ratio (24 to 72 hours after cisplatin dosing): 31 % NS
  Total vomiting suppression ratio (0 to 72 hours after cisplatin dosing): 30 % NS
[1]; [3]
  Duration (in hour; mean ± SD): 50.8 ± 7.3 h
  Latency (in hour; mean ± SD): 13.4 ± 4.9 h
  On day 0 (0-24 hours): frequency of retching and vomiting (mean ± SD): 24.8 ± 14.8
  On day 0 (0-24 hours): number of ferrets with vomiting/ number of tested ferrets: 3/4
  On days 1-2(24-48 hours): frequency of retching and vomiting (mean ± SD): 245.8 ± 34.3
  On days 1-2(24-48 hours): number of ferrets with vomiting/ number of tested ferrets: 4/4
  Total frequency of retching and vomiting (on days 0-2; 0-72 hours): 270.5 ± 43.7
[1]; 0.1 mg/kg p.o. twice daily
  Acute vomiting suppression ratio (0 to 24 hours after cisplatin dosing): 21 % NS
  Delayed vomiting suppression ratio (24 to 72 hours after cisplatin dosing): 37 % a
  Effect on delayed vomiting induced by cisplatin (in words): significantly suppressed
  Total vomiting suppression ratio (0 to 72 hours after cisplatin dosing): 36 % a
[1]; [4]
  Duration (in hour; mean ± SD): 54.8 ± 6.1 h
  Latency (in hour; mean ± SD): 13.3 ± 6.3 h
  On day 0 (0-24 hours): frequency of retching and vomiting (mean ± SD): 26.0 ± 11.2
  On day 0 (0-24 hours): number of ferrets with vomiting/ number of tested ferrets: 3/4
  On days 1-2(24-48 hours): frequency of retching and vomiting (mean ± SD): 222.0 ± 20.7 a
  On days 1-2(24-48 hours): number of ferrets with vomiting/ number of tested ferrets: 4/4
  Total frequency of retching and vomiting (on days 0-2; 0-72 hours): 248.0 ± 10.7 a
[1]; 0.3 mg/kg p.o. twice daily
  Acute vomiting suppression ratio (0 to 24 hours after cisplatin dosing): 100 % NS
  Delayed vomiting suppression ratio (24 to 72 hours after cisplatin dosing): 41 % b
  Total vomiting suppression ratio (0 to 72 hours after cisplatin dosing): 46 % b
[1]; [5]
  Duration (in hour; mean ± SD): 31.1 ± 1.9 a hour
  Latency (in hour; mean ± SD): 34.5 ± 3.4 b hour
  On day 0 (0-24 hours): frequency of retching and vomiting (mean ± SD): 0
  On day 0 (0-24 hours): number of ferrets with vomiting/ number of tested ferrets: 0/4
  On days 1-2(24-48 hours): frequency of retching and vomiting (mean ± SD): 209.3 ± 14.0 b
  On days 1-2(24-48 hours): number of ferrets with vomiting/ number of tested ferrets: 4/4
  Total frequency of retching and vomiting (on days 0-2; 0-72 hours): 209.3 ± 14.0 b
[1]; 1 mg/kg p.o. twice daily
  Acute vomiting suppression ratio (0 to 24 hours after cisplatin dosing): 0 % NS
  Delayed vomiting suppression ratio (24 to 72 hours after cisplatin dosing): 70 % a
  Total vomiting suppression ratio (0 to 72 hours after cisplatin dosing): 54 % b
[1]; [6]
  Delayed vomiting suppression ratio (24 to 72 hours after cisplatin dosing): 70%
  Total vomiting suppression ratio (0 to 72 hours after cisplatin dosing): 54%
[1]; 1 mg/kg × 2 p.o., twice daily
  Duration (in hour; mean ± SD): 64.8 ± 2.2 h
  Latency (in hour; mean ± SD): 3.4 ± 1.1 h
  On day 0 (0-24 hours): frequency of retching and vomiting (mean ± SD): 71.8 ± 20.6
  On day 0 (0-24 hours): number of ferrets with vomiting/ number of tested ferrets: 4/4
  On days 1-2(24-48 hours): frequency of retching and vomiting (mean ± SD): 108.0 ± 9.6 b
  On days 1-2(24-48 hours): number of ferrets with vomiting/ number of tested ferrets: 4/4
  Total frequency of retching and vomiting (on days 0-2; 0-72 hours): 179.8 ± 21.0 b
[1]; 3 mg/kg p.o. once daily, listed as compound No. 3
  Delayed vomiting suppression ratio (0 to 72 hours after cisplatin dosing): 42%
[1]; 3 mg/kg p.o. twice daily
  Acute vomiting suppression ratio (0 to 24 hours after cisplatin dosing): 82 % NS
  Delayed vomiting suppression ratio (24 to 72 hours after cisplatin dosing): 59 % b
  Total vomiting suppression ratio (0 to 72 hours after cisplatin dosing): 61 % b
[1]; [7]
  Acute vomiting suppression ratio (0 to 24 hours after cisplatin dosing): 82%
  Delayed vomiting suppression ratio (24 to 72 hours after cisplatin dosing): 59%
[1]; 3 mg/kg p.o., once daily
  Acute vomiting suppression ratio (0 to 24 hours after cisplatin dosing): 48 % NS
  Delayed vomiting suppression ratio (0 to 72 hours after cisplatin dosing): 42 % a
  Delayed vomiting suppression ratio (24 to 72 hours after cisplatin dosing): 40 % NS
  Duration (in hour; mean ± SD): 61.2 ± 1.2 h
  Latency (in hour; mean ± SD): 7.8 ± 1.1 h
  On day 0 (0-24 hours): frequency of retching and vomiting (mean ± SD): 56.8 ± 18.4
  On day 0 (0-24 hours): number of ferrets with vomiting/ number of tested ferrets: 4/4
  On days 1-2(24-48 hours): frequency of retching and vomiting (mean ± SD): 209.5±23.6
  On days 1-2(24-48 hours): number of ferrets with vomiting/ number of tested ferrets: 4/4
  Total frequency of retching and actual vomiting (on days 0-2; 0-72 hours): 266.3 ± 20.6 a
[1]; 3 mg/kg × 2 p.o., twice daily
  Duration (in hour; mean ± SD): 40.9 ± 13.9 h
  Latency (in hour; mean ± SD): 25.8 ± 10.7 h
  On day 0 (0-24 hours): frequency of retching and vomiting (mean ± SD): 6.0 ± 4.5
  On day 0 (0-24 hours): number of ferrets with vomiting/ number of tested ferrets: 2/4
  On days 1-2(24-48 hours): frequency of retching and vomiting (mean ± SD): 145.0 ± 50.5 b
  On days 1-2(24-48 hours): number of ferrets with vomiting/ number of tested ferrets: 4/4
  Total frequency of retching and vomiting (on days 0-2; 0-72 hours): 150.8 ± 53.1 b
[1]; [8]
  Acute vomiting suppression ratio (0 to 24 hours after cisplatin dosing): 83%
  Delayed vomiting suppression ratio (24 to 72 hours after cisplatin dosing): 65%
[1]; 10 mg/kg p.o., once daily
  Acute vomiting suppression ratio (0 to 24 hours after cisplatin dosing): 83 % NS
  Delayed vomiting suppression ratio (0 to 72 hours after cisplatin dosing): 70 % b
  Delayed vomiting suppression ratio (24 to 72 hours after cisplatin dosing): 65 % a
  Duration (in hour; mean ± SD): 51.4 ± 7.0 a hour
  Effect on delayed vomiting induced by cisplatin (in words): prominently suppressed
  Latency (in hour; mean ± SD): 16.2 ± 5.6 h
  On day 0 (0-24 hours): frequency of retching and vomiting (mean ± SD): 19.0 ± 11.0 b
  On day 0 (0-24 hours): number of ferrets with vomiting/ number of tested ferrets: 3/4
  On days 1-2(24-48 hours): frequency of retching and vomiting (mean ± SD): 120.5 ± 5.0 a
  On days 1-2(24-48 hours): number of ferrets with vomiting/ number of tested ferrets: 4/4
  Total frequency of retching and actual vomiting (on days 0-2; 0-72 hours): 139.5 ± 8.3 b
[2]; 3 mg/kg p.o.
  Effect on vomiting (in words): likely to be suppressed
  Vomiting suppression ratio: 48 % NS
  B: Frequency of vomiting (mean ± SD): 6.3 ± 1.3
  C: Time period until first vomiting (minute; mean ± SD): 7.2 ± 0.6 min
  D: Duration of vomiting (minute; mean ± SD): 12.0 ± 3.0 min
  Number of dogs with vomiting/number of tested dogs: 3/3
[2]; 10 mg/kg p.o.
  Effect on the duration of vomiting from the start to the termination (in words): greatly shortened
  Effect on vomiting (in words): prominently suppressed
  Vomiting suppression ratio: 89 % a
  B: Frequency of vomiting (mean ± SD): 1.3± 0.9b
  C: Time period until first vomiting (minute; mean ± SD): 27.6 ± 13.8 min
  D: Duration of vomiting (minute; mean ± SD): 1.2 ± 1.2 a minute
  Number of dogs with vomiting/number of tested dogs: 2/3

— patent EP1145714A1, “DRUGS” (Takeda Chemical Industries, Ltd., priority 1998, dated 2000)
